Laboratory results from the NIST ThermoML archive (doi:10.1021/acs.jced.8b00132).
“And” between values parts separate entries of the source, which are not always exact repeats. Equal entries are not always repeated.

Conditions: Liquid, transient hot wire

O=C(C(F)(F)C(F)(F)F)C(F)(C(F)(F)F)C(F)(F)F [dodecafluoro-2-methylpentan-3-one]
Conditions	thermal conductivity
242.34 K, 5849 kPa	0.06998 W/m/K
242.34 K, 5853 kPa	0.06965 W/m/K
242.35 K, 208 kPa	0.06798 W/m/K
242.35 K, 212 kPa	0.06825 W/m/K
242.58 K, 60304 kPa	0.08223 W/m/K
242.58 K, 60314 kPa	0.08199 W/m/K
242.59 K, 33710 kPa	0.0767 W/m/K
242.59 K, 50797 kPa	0.08019 W/m/K
242.59 K, 50816 kPa	0.07983 W/m/K
242.59 K, 68418 kPa	0.08363 W/m/K
242.59 K, 68434 kPa	0.08369 W/m/K
242.6 K, 33703 kPa	0.07658 W/m/K
242.6 K, 41984 kPa	0.07877 W/m/K
242.6 K, 41989 kPa	0.07848 W/m/K
242.67 K, 25698 kPa	0.07459 W/m/K
242.68 K, 25706 kPa	0.07494 W/m/K
242.77 K, 18756 kPa	0.073 W/m/K
242.77 K, 18761 kPa	0.07312 W/m/K
242.79 K, 12031 kPa	0.07146 W/m/K
242.8 K, 12030 kPa	0.07148 W/m/K
242.91 K, 5853 kPa	0.06968 W/m/K
242.91 K, 5856 kPa	0.06976 W/m/K
242.92 K, 207 kPa	0.06801 W/m/K
242.93 K, 208 kPa	0.06804 W/m/K
243.11 K, 60298 kPa	0.08226 W/m/K
243.11 K, 68406 kPa	0.084 W/m/K
243.11 K, 68416 kPa	0.08398 W/m/K
243.12 K, 60300 kPa	0.082 W/m/K
243.13 K, 50796 kPa	0.08047 W/m/K
243.13 K, 50797 kPa	0.08042 W/m/K
243.16 K, 41981 kPa	0.07861 W/m/K
243.16 K, 41982 kPa	0.07868 W/m/K
243.17 K, 33693 kPa	0.07674 W/m/K
243.17 K, 33696 kPa	0.07679 W/m/K
243.25 K, 25695 kPa	0.07494 W/m/K
243.26 K, 25691 kPa	0.07494 W/m/K
243.36 K, 18758 kPa	0.07321 W/m/K
243.36 K, 18761 kPa	0.07324 W/m/K
243.39 K, 12032 kPa	0.07131 W/m/K
243.41 K, 12030 kPa	0.07139 W/m/K
243.52 K, 5859 kPa	0.0695 W/m/K and 0.06954 W/m/K
243.55 K, 209 kPa	0.06795 W/m/K
243.56 K, 209 kPa	0.06794 W/m/K
243.69 K, 68395 kPa	0.08376 W/m/K
243.69 K, 68403 kPa	0.08352 W/m/K
243.7 K, 60284 kPa	0.08212 W/m/K
243.71 K, 60287 kPa	0.08216 W/m/K
243.73 K, 50783 kPa	0.08028 W/m/K
243.74 K, 50794 kPa	0.08029 W/m/K
243.77 K, 41976 kPa	0.07861 W/m/K
243.77 K, 41985 kPa	0.07849 W/m/K
243.8 K, 33690 kPa	0.07668 W/m/K
243.8 K, 33707 kPa	0.07668 W/m/K
271.75 K, 5167 kPa	0.06405 W/m/K
271.76 K, 5170 kPa	0.06371 W/m/K
271.8 K, 431 kPa	0.06194 W/m/K
271.81 K, 411 kPa	0.06198 W/m/K
271.99 K, 24357 kPa	0.07109 W/m/K
271.99 K, 24380 kPa	0.07115 W/m/K
272.01 K, 32229 kPa	0.0734 W/m/K
272.01 K, 32230 kPa	0.07317 W/m/K
272.03 K, 40370 kPa	0.07538 W/m/K
272.04 K, 40373 kPa	0.07501 W/m/K
272.04 K, 46123 kPa	0.07637 W/m/K
272.05 K, 11155 kPa	0.06578 W/m/K
272.05 K, 11165 kPa	0.06595 W/m/K
272.05 K, 46118 kPa	0.07672 W/m/K
272.06 K, 17558 kPa	0.06827 W/m/K
272.07 K, 17554 kPa	0.06805 W/m/K
272.15 K, 5158 kPa	0.06391 W/m/K
272.16 K, 5173 kPa	0.06421 W/m/K
272.21 K, 418 kPa	0.06216 W/m/K
272.21 K, 421 kPa	0.06256 W/m/K
272.49 K, 24363 kPa	0.06931 W/m/K
272.5 K, 32236 kPa	0.07245 W/m/K
272.5 K, 32238 kPa	0.07194 W/m/K
272.5 K, 40381 kPa	0.07419 W/m/K
272.51 K, 40379 kPa	0.07408 W/m/K
272.52 K, 46113 kPa	0.0755 W/m/K
272.52 K, 46119 kPa	0.07509 W/m/K
272.58 K, 5167 kPa	0.06402 W/m/K
272.58 K, 11163 kPa	0.0662 W/m/K
272.58 K, 17548 kPa	0.06807 W/m/K
272.58 K, 17564 kPa	0.06792 W/m/K
